{"source": "patent EP1925205A1", "about": "“Plant propagation material treatment nematicides” (priority 2006, dated 2008)", "type_in_all_cases": "in vivo, Meloidogyne incognita", "key": {"M. incognita [1]": {"system": "M. incognita", "settings": "for Efficacy (%): tomato seeds, DS formulation, inoculated 14 days after sowing, galling 28 days after inoculation; for average rating (gall rating, score 0.1-7): tomato, 1 mg /seed, untreated control 4.1"}, "Meloidogyne spp.": {"system": "Meloidogyne spp.", "assay": "General statement of effectiveness against nematodes by plant propagation material treatment"}, "M. incognita [2]": {"system": "M. incognita", "assay": "Example 1: nematode control by tomato seed treatment, root galling (index adapted from Zeck), two exposure timings", "settings": "for Efficacy (%) at the two-week exposure / Efficacy (%) at the four-week exposure: tomato seeds, DS formulation, galling 28 days after inoculation; for Efficacy (%) at the two-week exposure: inoculated 14 days after sowing, 6000 eggs; for Efficacy (%) at the four-week exposure: inoculated 28 days after sowing, 9000 eggs; for average rating (gall rating, score 0.1-7): tomato"}, "M. incognita [3]": {"system": "M. incognita", "settings": "for Efficacy (%): tomato seeds, DS formulation, inoculated 14 days after sowing, galling 28 days after inoculation; for average rating (gall rating, score 0.1-7): tomato, 1 mg /seed, untreated control 4.6"}, "M. incognita [4]": {"system": "M. incognita", "assay": "Example 4: nematode control by tomato seed treatment, root galling (index adapted from Zeck)", "settings": "for Efficacy (%) / germination of treated seeds: tomato seeds; for Efficacy (%): Methiocarb FS500, Thiodicarb DS, inoculated 14 days after sowing, galling 28 days after inoculation; for germination of treated seeds: FS500 formulation; for average rating (gall rating, score 0.1-7): tomato, untreated control 4.3"}, "[5]": {"settings": "1 mg a.i./seed, inoculated at 14 days after sowing, untreated control 3.5"}, "[6]": {"settings": "1 mg a.i./seed, inoculated at 28 days after sowing, untreated control 2.9"}}, "note": "Where “and” joins values, the source holds several entries; their conditions need not be identical. Equal values may be shown once. Read-outs that look alike come from different tables or passages of the source."}
{"compound": "CCOP(=S)(OCC)Oc1ccc([S+](C)[O-])cc1", "note": "(stereo not shown) [Fensulfothion]", "values": [{"measurement": "Efficacy (%)", "setting": "M. incognita [1]; 0.01 mg a.i./seed", "result": 0, "unit": "%"}, {"measurement": "Efficacy (%)", "setting": "M. incognita [1]; 0.03 mg a.i./seed", "result": 2.0, "unit": "%"}, {"measurement": "Efficacy (%)", "setting": "M. incognita [1]; 0.1 mg a.i./seed", "result": 0, "unit": "%"}, {"measurement": "Efficacy (%)", "setting": "M. incognita [1]; 0.3 mg a.i./seed", "result": 0, "unit": "%"}, {"measurement": "Efficacy (%)", "setting": "M. incognita [1]; 1 mg a.i./seed", "result": 20.4, "unit": "%"}, {"measurement": "average rating (gall rating, score 0.1-7)", "setting": "M. incognita [1]", "result": 3.3}, {"measurement": "effective against Meloidogyne spp., for example, Meloidogyne incognita", "setting": "Meloidogyne spp.", "result": "effective"}]}
{"compound": "CCOP(=O)(SC(C)CC)N1CCSC1=O", "note": "(stereo not shown) [Fosthiazate]", "values": [{"measurement": "effective against Meloidogyne spp., for example, Meloidogyne incognita", "setting": "Meloidogyne spp.", "result": "effective"}, {"measurement": "Efficacy (%) at the two-week exposure", "setting": "M. incognita [2]; 0.03 mg a.i./seed", "result": 0, "unit": "%"}, {"measurement": "Efficacy (%) at the four-week exposure", "setting": "M. incognita [2]; 0.03 mg a.i./seed", "result": 0, "unit": "%"}, {"measurement": "Efficacy (%) at the two-week exposure", "setting": "M. incognita [2]; 0.1 mg a.i./seed", "result": 40, "unit": "%"}, {"measurement": "Efficacy (%) at the four-week exposure", "setting": "M. incognita [2]; 0.1 mg a.i./seed", "result": 0, "unit": "%"}, {"measurement": "Efficacy (%) at the two-week exposure", "setting": "M. incognita [2]; 0.3 mg a.i./seed", "result": 28.6, "unit": "%"}, {"measurement": "Efficacy (%) at the four-week exposure", "setting": "M. incognita [2]; 0.3 mg a.i./seed", "result": 10.9, "unit": "%"}, {"measurement": "Efficacy (%) at the two-week exposure", "setting": "M. incognita [2]; 1 mg a.i./seed", "result": "59% and 59.4%"}, {"measurement": "Efficacy (%) at the four-week exposure", "setting": "M. incognita [2]; 1 mg a.i./seed", "result": 40, "unit": "%"}, {"measurement": "average rating (gall rating, score 0.1-7)", "setting": "M. incognita [2]; [5]", "result": 1.4}, {"measurement": "average rating (gall rating, score 0.1-7)", "setting": "M. incognita [2]; [6]", "result": 1.8}]}
{"compound": "CCOP(=S)(OCC)Oc1nc(Cl)n(C(C)C)n1", "note": "[Isazofos]", "values": [{"measurement": "effective against Meloidogyne spp., for example, Meloidogyne incognita", "setting": "Meloidogyne spp.", "result": "effective"}, {"measurement": "Efficacy (%)", "setting": "M. incognita [3]; 0.03 mg a.i./seed", "result": 4.0, "unit": "%"}, {"measurement": "Efficacy (%)", "setting": "M. incognita [3]; 0.1 mg a.i./seed", "result": 2.2, "unit": "%"}, {"measurement": "Efficacy (%)", "setting": "M. incognita [3]; 0.3 mg a.i./seed", "result": 34.8, "unit": "%"}, {"measurement": "Efficacy (%)", "setting": "M. incognita [3]; 1 mg a.i./seed", "result": 87.0, "unit": "%"}, {"measurement": "average rating (gall rating, score 0.1-7)", "setting": "M. incognita [3]", "result": 0.6}]}
{"compound": "CNC(=O)Oc1cc(C)c(SC)c(C)c1", "note": "[Methiocarb]", "values": [{"measurement": "Efficacy (%)", "setting": "M. incognita [4]; 0.01 mg a.i./seed", "result": 3.8, "unit": "%"}, {"measurement": "Efficacy (%)", "setting": "M. incognita [4]; 0.03 mg a.i./seed", "result": 3.8, "unit": "%"}, {"measurement": "Efficacy (%)", "setting": "M. incognita [4]; 0.1 mg a.i./seed", "result": 1.9, "unit": "%"}, {"measurement": "germination of treated seeds", "setting": "M. incognita [4]; 0.3 mg /seed", "result": "only 1 seed out of 6 germinated"}, {"measurement": "Efficacy (%)", "setting": "M. incognita [4]; 0.3 mg a.i./seed", "result": 0, "unit": "%"}, {"measurement": "germination of treated seeds", "setting": "M. incognita [4]; 1 mg a.i./seed", "result": "did not germinate"}, {"measurement": "average rating (gall rating, score 0.1-7)", "setting": "M. incognita [4]; 0.1 mg /seed", "result": 4.3}, {"measurement": "average rating (gall rating, score 0.1-7)", "setting": "M. incognita [4]; 0.3 mg /seed, only one germinated plant", "result": 4.5}]}
{"compound": "CNC(=O)O/N=C(\\SC)C(=O)N(C)C", "note": "[Oxamyl]", "values": [{"measurement": "Efficacy (%) at the two-week exposure", "setting": "M. incognita [2]; 0.03 mg a.i./seed", "result": 7.1, "unit": "%"}, {"measurement": "Efficacy (%) at the four-week exposure", "setting": "M. incognita [2]; 0.03 mg a.i./seed", "result": 0, "unit": "%"}, {"measurement": "Efficacy (%) at the two-week exposure", "setting": "M. incognita [2]; 0.1 mg a.i./seed", "result": 0, "unit": "%"}, {"measurement": "Efficacy (%) at the four-week exposure", "setting": "M. incognita [2]; 0.1 mg a.i./seed", "result": 2.9, "unit": "%"}, {"measurement": "Efficacy (%) at the two-week exposure", "setting": "M. incognita [2]; 0.3 mg a.i./seed", "result": 0, "unit": "%"}, {"measurement": "Efficacy (%) at the four-week exposure", "setting": "M. incognita [2]; 0.3 mg a.i./seed", "result": 0, "unit": "%"}, {"measurement": "Efficacy (%) at the two-week exposure", "setting": "M. incognita [2]; 1 mg a.i./seed", "result": 0, "unit": "%"}, {"measurement": "Efficacy (%) at the four-week exposure", "setting": "M. incognita [2]; 1 mg a.i./seed", "result": 4.5, "unit": "%"}, {"measurement": "average rating (gall rating, score 0.1-7)", "setting": "M. incognita [2]; [5]", "result": 3.5}, {"measurement": "average rating (gall rating, score 0.1-7)", "setting": "M. incognita [2]; [6]", "result": 2.8}]}
{"compound": "CCOP(=S)(OCC)SCSCC", "note": "[Phorate]", "values": [{"measurement": "Efficacy (%)", "setting": "M. incognita [3]; 0.03 mg a.i./seed", "result": 22.1, "unit": "%"}, {"measurement": "Efficacy (%)", "setting": "M. incognita [3]; 0.1 mg a.i./seed", "result": 2.2, "unit": "%"}, {"measurement": "Efficacy (%)", "setting": "M. incognita [3]; 0.3 mg a.i./seed", "result": 2.2, "unit": "%"}, {"measurement": "Efficacy (%)", "setting": "M. incognita [3]; 1 mg a.i./seed", "result": 5.8, "unit": "%"}, {"measurement": "average rating (gall rating, score 0.1-7)", "setting": "M. incognita [3]", "result": 4.3}]}
{"compound": "CCN(CC)C(=O)C(Cl)=C(C)OP(=O)(OC)OC", "note": "[Phosphamidon]", "values": [{"measurement": "Efficacy (%)", "setting": "M. incognita [1]; 0.01 mg a.i./seed", "result": 0, "unit": "%"}, {"measurement": "Efficacy (%)", "setting": "M. incognita [1]; 0.03 mg a.i./seed", "result": 2.0, "unit": "%"}, {"measurement": "Efficacy (%)", "setting": "M. incognita [1]; 0.1 mg a.i./seed", "result": 0, "unit": "%"}, {"measurement": "Efficacy (%)", "setting": "M. incognita [1]; 0.3 mg a.i./seed", "result": 0, "unit": "%"}, {"measurement": "Efficacy (%)", "setting": "M. incognita [1]; 1 mg a.i./seed", "result": 0, "unit": "%"}, {"measurement": "average rating (gall rating, score 0.1-7)", "setting": "M. incognita [1]", "result": 4.1}]}
{"compound": "CCOP(=S)(OCC)SCSC(C)(C)C", "note": "[Terbufos]", "values": [{"measurement": "Efficacy (%)", "setting": "M. incognita [1]; 0.01 mg a.i./seed", "result": 0, "unit": "%"}, {"measurement": "Efficacy (%)", "setting": "M. incognita [1]; 0.03 mg a.i./seed", "result": 0, "unit": "%"}, {"measurement": "Efficacy (%)", "setting": "M. incognita [1]; 0.1 mg a.i./seed", "result": 0, "unit": "%"}, {"measurement": "Efficacy (%)", "setting": "M. incognita [1]; 0.3 mg a.i./seed", "result": 0, "unit": "%"}, {"measurement": "Efficacy (%)", "setting": "M. incognita [1]; 1 mg a.i./seed", "result": 0, "unit": "%"}, {"measurement": "average rating (gall rating, score 0.1-7)", "setting": "M. incognita [1]", "result": 4.1}]}
{"compound": "CS/C(C)=N\\OC(=O)N(C)SN(C)C(=O)O/N=C(\\C)SC", "note": "[Thiodicarb]", "values": [{"measurement": "Efficacy (%)", "setting": "M. incognita [4]; 0.03 mg a.i./seed", "result": 0, "unit": "%"}, {"measurement": "Efficacy (%)", "setting": "M. incognita [4]; 0.1 mg a.i./seed", "result": 0, "unit": "%"}, {"measurement": "Efficacy (%)", "setting": "M. incognita [4]; 0.3 mg a.i./seed", "result": 0, "unit": "%"}, {"measurement": "Efficacy (%)", "setting": "M. incognita [4]; 1 mg a.i./seed", "result": 1.9, "unit": "%"}, {"measurement": "average rating (gall rating, score 0.1-7)", "setting": "M. incognita [4]; 1 mg a.i./seed", "result": 4.3}]}
